{"source": "patent US11952328B2", "about": "“Selective ship inhibitors for treating disease” (THE RESEARCH FOUNDATION FOR THE STATE UNIVERSITY OF NEW YORK, priority 2018, dated 2024)", "key": {"SHIP1": {"target": "T1, SHIP1 (Homo sapiens, UniProt Q92835)", "T1 sequence (Q92835 1-1189)": "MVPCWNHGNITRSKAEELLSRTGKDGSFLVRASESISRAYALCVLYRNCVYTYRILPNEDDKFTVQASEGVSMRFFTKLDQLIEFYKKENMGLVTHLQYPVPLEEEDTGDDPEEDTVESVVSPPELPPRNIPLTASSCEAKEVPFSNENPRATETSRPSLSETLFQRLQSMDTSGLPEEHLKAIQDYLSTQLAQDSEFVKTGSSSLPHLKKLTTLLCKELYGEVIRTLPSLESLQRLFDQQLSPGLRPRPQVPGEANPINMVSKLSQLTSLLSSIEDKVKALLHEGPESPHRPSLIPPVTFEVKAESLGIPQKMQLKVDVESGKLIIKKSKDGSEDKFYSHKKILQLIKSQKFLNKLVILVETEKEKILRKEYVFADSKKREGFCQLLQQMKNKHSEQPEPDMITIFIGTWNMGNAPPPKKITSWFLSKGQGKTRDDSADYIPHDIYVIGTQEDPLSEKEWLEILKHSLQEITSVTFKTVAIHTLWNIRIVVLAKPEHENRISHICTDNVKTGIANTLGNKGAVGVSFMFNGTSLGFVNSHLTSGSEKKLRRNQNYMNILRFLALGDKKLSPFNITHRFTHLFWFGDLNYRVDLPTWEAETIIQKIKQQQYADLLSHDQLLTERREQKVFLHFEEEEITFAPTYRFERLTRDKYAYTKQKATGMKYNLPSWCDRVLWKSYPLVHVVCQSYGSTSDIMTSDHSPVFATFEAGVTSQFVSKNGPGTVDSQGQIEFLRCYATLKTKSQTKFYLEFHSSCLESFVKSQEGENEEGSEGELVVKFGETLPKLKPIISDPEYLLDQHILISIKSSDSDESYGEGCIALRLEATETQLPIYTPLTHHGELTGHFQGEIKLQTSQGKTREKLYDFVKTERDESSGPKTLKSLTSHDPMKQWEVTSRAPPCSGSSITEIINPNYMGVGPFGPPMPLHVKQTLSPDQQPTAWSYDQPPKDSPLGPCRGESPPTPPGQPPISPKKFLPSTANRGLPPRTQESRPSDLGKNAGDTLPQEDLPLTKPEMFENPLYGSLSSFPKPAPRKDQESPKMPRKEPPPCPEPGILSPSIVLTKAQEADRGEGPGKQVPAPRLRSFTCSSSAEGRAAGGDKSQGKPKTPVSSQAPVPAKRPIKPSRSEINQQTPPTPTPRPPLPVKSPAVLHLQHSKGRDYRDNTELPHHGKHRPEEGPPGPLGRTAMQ", "test": "Malachite Green phosphatase assay", "assay_type": "biochemical", "conditions": "at 1 nm and 500 μM", "source_text": "FIGS. 2A-2C show the results of a SHIP1 malachite phosphatase assay. […] This predicts that the sulfonic acid is acting as a phosphate mimic, binding in active site where the 5′-phosphate of PIP3 binds.\nK223 is an analog of EDANS, with the corresponding sulfonyl chloride of K223 being used as a donor for developing FRET-based nucleic acid probes and protease substrates. The docking pose of K223 with the model of the SHIP1 active site predicted that the sulfonic acid acts as a phosphate mimic, binding in the active site where the 5′-phosphate of PIP3 binds (FIG. 2B). The origin of the SHIP1 selectivity for K223 was not clear, however the nonpolar naphthalene core rests near K682 in the model of SHIP1, and this residue is a more polar arginine in SHIP2."}, "T and NK cells": {"test_system": "T and NK cells", "test": "Continuous dosing of patients with selective SHIP1 inhibitor", "assay_type": "in vivo", "conditions": "administration periods of 3, 4, 5, 6, 7 or more days", "experimental": "An effective dose of selective SHIP1 inhibitor (e.g. K223) is administered by any appropriate means (e.g., orally, intravenously, intraperitoneally) to a patient for administration periods of 3, 4, 5, 6, 7 or more days."}}, "data": [{"smiles": "NCCNc1cccc2cccc(S(=O)(=O)O)c12", "note": "[Compound K223, 8-((2-aminoethyl)amino)naphthalene-1-sulfonic acid]", "values": [{"measurement": "inhibition of SHIP1", "setting": "SHIP1", "result": "potent and selective inhibition of SHIP1"}, {"measurement": "responsiveness of activated T and NK cells", "setting": "T and NK cells", "result": "hyporesponsiveness"}]}]}
